In article PMC12257394, “Design, Synthesis, and Biological Evaluation of Ferrocenyl–Cyclo-(Gly‑L‑Pro) Hybrids Sensitizing Multidrug-Resistant Cancer Cells to Anticancer Agents” (ACS Medicinal Chemistry Letters, 2025):

What was measured:
Format in all cases: cell-based, human
[1] = Neutral red uptake viability assay, SW620D; conditions: human, SW620D cells (doxorubicin-resistant), 72 h, n = 3, read-out: Cytotoxic activity IC50 (95% CI)
[2] = Neutral red uptake viability assay, SW620V; conditions: human, SW620V cells (vincristine-resistant), 72 h, n = 3, read-out: Cytotoxic activity IC50 (95% CI)
[3] = Neutral red uptake viability assay, SW620; conditions: human, SW620 colon cancer cells; SW620, 72 h, n = 3; read-out: Cytotoxic activity IC50 (95% CI)
In short: (§1)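 10^4 cells/well, overnight attachment; cpd 1 or 10 μM, 0.1% DMSO, 70 h, 37°C/5% CO2; neutral red 1 mM final, 2 h; PBS wash x2, solubilize, A540; % control, IC50 fit.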

[4] = Neutral red uptake viability assay, SW620E; conditions: human, SW620E cells (etoposide-resistant), 72 h, n = 3, read-out: Cytotoxic activity IC50 (95% CI)
In short: as §1

[5] = Neutral red uptake viability assay, SW620M; conditions: human, SW620M cells (methotrexate-resistant), 72 h, n = 3, read-out: Cytotoxic activity IC50 (95% CI)
[6] = Neutral red uptake viability assay, SW620Mito; conditions: human, SW620Mito cells (mitoxantrone-resistant), 72 h, n = 3, read-out: Cytotoxic activity IC50 (95% CI)

Measured: IC50 at 72 h

O=C1N/C(=C\c2ccccc2)C(=O)N2CCC[C@@H]12 [(S,Z)-4e]
> 100 µM: all assays above

O=C1N/C(=C/c2ccccc2)C(=O)N2CCC[C@@H]12 [(S,E)-4e]
> 100 µM: all assays above
